From ChEMBL document CHEMBL4024727, “Synthesis and antimycobacterial screening of new thiazolyl-oxazole derivatives” (Eur J Med Chem, 2017)
In brackets after ≈: the same amount, converted by molar mass.

Assays:
[1] = tested on: Mycobacterium tuberculosis; experiment: Growth inhibition of Mycobacterium tuberculosis H37Ra ATCC 25177 at 30 ug/ml by XTT dye based two-fold dilution method relative to control; assay type: functional; conditions: read-out: GI
[2] = tested on: Mycobacterium tuberculosis; experiment: Growth inhibition of Mycobacterium tuberculosis H37Ra ATCC 25177 at 10 ug/ml by XTT dye based two-fold dilution method relative to control; assay type: functional; conditions: read-out: GI
[3] = tested on: Mycobacterium tuberculosis; experiment: Growth inhibition of Mycobacterium tuberculosis H37Ra ATCC 25177 at 3 ug/ml by XTT dye based two-fold dilution method relative to control; assay type: functional; conditions: read-out: GI
[4] = tested on: Mycobacterium tuberculosis; experiment: Growth inhibition of Mycobacterium bovis BCG ATCC 35743 at 30 ug/ml by nitrate reductase based two-fold dilution assay relative to control; assay type: functional; conditions: BCG str. ATCC 35743, read-out: GI
[5] = tested on: Mycobacterium tuberculosis; experiment: Growth inhibition of Mycobacterium bovis BCG ATCC 35743 at 10 ug/ml by nitrate reductase based two-fold dilution assay relative to control; assay type: functional; conditions: BCG str. ATCC 35743, read-out: GI
[6] = tested on: Mycobacterium tuberculosis; experiment: Growth inhibition of Mycobacterium bovis BCG ATCC 35743 at 1 ug/ml by nitrate reductase based two-fold dilution assay relative to control; assay type: functional; conditions: BCG str. ATCC 35743, read-out: GI
[7] = tested on: Mycobacterium tuberculosis; experiment: Antitubercular activity against Mycobacterium tuberculosis H37Ra ATCC 25177 dormant stage by XTT dye based two-fold dilution method; assay type: functional
[8] = tested on: Mycobacterium tuberculosis; experiment: Antitubercular activity against Mycobacterium bovis BCG ATCC 35743 dormant stage by nitrate reductase based two-fold dilution assay; assay type: functional; conditions: BCG str. ATCC 35743
[9] = tested on: Escherichia coli; experiment: Growth inhibition of Escherichia coli NCIM 2576 at 30 ug/ml measured after 8 hrs relative to control; assay type: functional; conditions: NCIM 2576, 8 h, read-out: GI
[10] = tested on: Escherichia coli; experiment: Growth inhibition of Escherichia coli NCIM 2576 at 10 ug/ml measured after 8 hrs relative to control; assay type: functional; conditions: NCIM 2576, 8 h, read-out: GI
[11] = tested on: Escherichia coli; experiment: Growth inhibition of Escherichia coli NCIM 2576 at 1 ug/ml measured after 8 hrs relative to control; assay type: functional; conditions: NCIM 2576, 8 h, read-out: GI
[12] = tested on: Pseudomonas fluorescens; experiment: Growth inhibition of Pseudomonas fluorescens NCIM 2059 at 30 ug/ml measured after 8 hrs relative to control; assay type: functional; conditions: NCIM 2059, 8 h, read-out: GI
[13] = tested on: Pseudomonas fluorescens; experiment: Growth inhibition of Pseudomonas fluorescens NCIM 2059 at 10 ug/ml measured after 8 hrs relative to control; assay type: functional; conditions: NCIM 2059, 8 h, read-out: GI
[14] = tested on: Pseudomonas fluorescens; experiment: Growth inhibition of Pseudomonas fluorescens NCIM 2059 at 1 ug/ml measured after 8 hrs relative to control; assay type: functional; conditions: NCIM 2059, 8 h, read-out: GI
[15] = tested on: Staphylococcus aureus; experiment: Growth inhibition of Staphylococcus aureus NCIM 2602 at 30 ug/ml measured after 12 hrs relative to control; assay type: functional; conditions: NCIM 2602, 12 h, read-out: GI
[16] = tested on: Staphylococcus aureus; experiment: Growth inhibition of Staphylococcus aureus NCIM 2602 at 10 ug/ml measured after 12 hrs relative to control; assay type: functional; conditions: NCIM 2602, 12 h, read-out: GI
[17] = tested on: Staphylococcus aureus; experiment: Growth inhibition of Staphylococcus aureus NCIM 2602 at 1 ug/ml measured after 12 hrs relative to control; assay type: functional; conditions: NCIM 2602, 12 h, read-out: GI
[18] = tested on: Bacillus subtilis; experiment: Growth inhibition of Bacillus subtilis NCIM 2162 at 30 ug/ml measured after 12 hrs relative to control; assay type: functional; conditions: NCIM 2162, 12 h, read-out: GI
[19] = tested on: Bacillus subtilis; experiment: Growth inhibition of Bacillus subtilis NCIM 2162 at 10 ug/ml measured after 12 hrs relative to control; assay type: functional; conditions: NCIM 2162, 12 h, read-out: GI
[20] = tested on: Bacillus subtilis; experiment: Growth inhibition of Bacillus subtilis NCIM 2162 at 1 ug/ml measured after 12 hrs relative to control; assay type: functional; conditions: NCIM 2162, 12 h, read-out: GI
[21] = tested on: Escherichia coli; experiment: Antibacterial activity against Escherichia coli NCIM 2576 measured after 8 hrs; assay type: functional; conditions: NCIM 2576, 8 h
[22] = tested on: Pseudomonas fluorescens; experiment: Antibacterial activity against Pseudomonas fluorescens NCIM 2059 measured after 8 hrs; assay type: functional; conditions: NCIM 2059, 8 h
[23] = tested on: Staphylococcus aureus; experiment: Antibacterial activity against Staphylococcus aureus NCIM 2602 measured after 12 hrs; assay type: functional; conditions: NCIM 2602, 12 h
[24] = tested on: Bacillus subtilis; experiment: Antibacterial activity against Bacillus subtilis NCIM 2162 measured after 12 hrs; assay type: functional; conditions: NCIM 2162, 12 h
[25] = (§1) Growth inhibition of human HeLa cells by MTT assay; assay type: cell-based; conditions: HeLa cells
[26] = tested on: HeLa; experiment: as §1; assay type: cell-based; conditions: hela
[27] = (§2) Growth inhibition of human A549 cells by MTT assay; assay type: cell-based; conditions: A549 cells
[28] = tested on: A549; experiment: as §2; assay type: cell-based; conditions: a549
[29] = (§3) Growth inhibition of human PANC1 cells by MTT assay; assay type: cell-based, PANC-1; conditions: PANC-1 cells
[30] = tested on: PANC-1; experiment: as §3; assay type: cell-based; conditions: panc-1
[31] = Selectivity index, ratio of GI50 for human HeLa cells to MIC for Mycobacterium tuberculosis H37Ra ATCC 25177 dormant stage; assay type: toxicity, cell-based; conditions: read-out: Selectivity Index
[32] = Selectivity index, ratio of GI50 for human HeLa cells to MIC for Mycobacterium bovis BCG ATCC 35743 dormant stage; assay type: toxicity, cell-based; conditions: read-out: Selectivity Index
[33] = Selectivity index, ratio of GI50 for human A549 cells to MIC for Mycobacterium tuberculosis H37Ra ATCC 25177 dormant stage; assay type: toxicity; conditions: read-out: Selectivity Index
[34] = Selectivity index, ratio of GI50 for human A549 cells to MIC for Mycobacterium bovis BCG ATCC 35743 dormant stage; assay type: toxicity; conditions: read-out: Selectivity Index
[35] = Selectivity index, ratio of GI50 for human PANC1 cells to MIC for Mycobacterium tuberculosis H37Ra ATCC 25177 dormant stage; assay type: toxicity; conditions: PANC-1 cells, read-out: Selectivity Index
[36] = Selectivity index, ratio of GI50 for human PANC1 cells to MIC for Mycobacterium bovis BCG ATCC 35743 dormant stage; assay type: toxicity; conditions: PANC-1 cells, read-out: Selectivity Index

| SMILES | inhibition of growth at 30 µg/mL [1] | inhibition of growth at 10 µg/mL [2] | inhibition of growth at 3 µg/mL [3] | inhibition of growth at 30 µg/mL [4] | inhibition of growth at 10 µg/mL [5] | inhibition of growth at 1 µg/mL [6] | IC50 [7] | MIC90 [7] | IC50 [8] | MIC90 [8] | inhibition of growth at 30 µg/mL [9] | inhibition of growth at 10 µg/mL [10] | inhibition of growth at 1 µg/mL [11] | inhibition of growth at 30 µg/mL [12] | inhibition of growth at 10 µg/mL [13] | inhibition of growth at 1 µg/mL [14] | inhibition of growth at 30 µg/mL [15] | inhibition of growth at 10 µg/mL [16] | inhibition of growth at 1 µg/mL [17] | inhibition of growth at 30 µg/mL [18] | other results |
| --- | --- | --- | --- | --- | --- | --- | --- | --- | --- | --- | --- | --- | --- | --- | --- | --- | --- | --- | --- | --- | --- |
| Cc1nc(-c2ccc(F)cc2)oc1-c1csc(Cc2ccccc2)n1 | 99% | 94% | 95% | 97% | 96% | 97% | 490 nM | 6.2 µM (≈ 2.17 µg/mL) | 540 nM | 7.33 µM (≈ 2.57 µg/mL) | 94% | 90.3% | 88.8% | 99.6% | 92.4% | 87% | 98.5% | 95.9% | 93.9% | 99.9% | inhibition of growth at 10 µg/mL [19]: 95.8%; inhibition of growth at 1 µg/mL [20]: 91.2%; MIC [21]: 20.6 µM (≈ 7.2 µg/mL); MIC [22]: 19.1 µM (≈ 6.7 µg/mL); MIC [23]: 6.85 µM (≈ 2.4 µg/mL); MIC [24]: 5.99 µM (≈ 2.1 µg/mL); GI50 [25]: 148 µg/mL (≈ 423 µM); GI90 [26]: 248.63 µg/mL (≈ 710 µM); GI50 [27]: > 250 µg/mL; GI90 [28]: > 250 µg/mL; GI50 [29]: > 250 µg/mL; GI90 [30]: > 250 µg/mL; selectivity ratio [31]: 68; selectivity ratio [32]: 58; selectivity ratio [33]: 115; selectivity ratio [34]: 97; selectivity ratio [35]: 115; selectivity ratio [36]: 97 |
| Cc1nc(-c2ccc(F)cc2)oc1-c1csc(Cc2ccc(F)cc2)n1 | 93% | 93% | 91% | 96% | 95% | 93% | 180 nM | 1.74 µM (≈ 0.641 µg/mL) | 190 nM | 1.76 µM (≈ 0.648 µg/mL) | 94.8% | 85.2% | 72.2% | 95.9% | 83.2% | 78.6% | 94.1% | 82.1% | 80% | 96.7% | inhibition of growth at 10 µg/mL [19]: 88.2%; inhibition of growth at 1 µg/mL [20]: 83.5%; MIC [21]: 60.3 µM (≈ 22.2 µg/mL); MIC [22]: 54.8 µM (≈ 20.2 µg/mL); MIC [23]: 62.7 µM (≈ 23.1 µg/mL); MIC [24]: 39.1 µM (≈ 14.4 µg/mL); GI50 [25]: 94.9 µg/mL (≈ 258 µM); GI90 [26]: > 250 µg/mL; GI50 [27]: > 250 µg/mL; GI90 [28]: > 250 µg/mL; GI50 [29]: > 250 µg/mL; GI90 [30]: > 250 µg/mL; selectivity ratio [31]: 148; selectivity ratio [32]: 146; selectivity ratio [33]: 391; selectivity ratio [34]: 385; selectivity ratio [35]: 391; selectivity ratio [36]: 385 |
